# Measured values: US20130287688A1, “NOVEL COMPOSITIONS AND USES OF ANTI-HYPERTENSION AGENTS FOR CANCER THERAPY” (XTUIT PHARMACEUTICALS, INC., priority 2010, published 2013)
# Tested on: E0771 tumors
# Test: Mathematical analysis of perfused vessel network (multiphoton microscopy)
# Format: in vivo, mice
structure (smiles),measurement,setting,value
CCCCc1nc(Cl)c(CO)n1Cc1ccc(-c2ccccc2-c2nn[nH]n2)cc1 [losartan],fractal dimension of vessel network,from a typical 1.89 in tumors toward 2.0 of normal capillary beds,increases
same,maximum distance drugs and oxygen must travel to reach tumor cells,pre- and post-treatment (days 2-5),decreases
